# Patent US8158389B2, “Products and methods for in vivo secretion of monatin” (priority 2005, dated 2012)
# Where “and” joins values, the source holds several entries; their conditions need not be identical. Equal entries are not always repeated. Where two headings read alike, the source gives them in different places. Marks after values point to notes of the source that are not given here.
# Experiments:
# EmrAB efflux pump = molecular target: T1, EmrAB efflux pump (Escherichia coli, UniProt P0AEJ0); test: Monatin efflux per dry cell weight after induction of the EmrAB efflux pump with CCCP; assay type: cell-based; details: for increase in monatin/dcw: 31 hours, vs control
# T1 construct: endogenous in cells; host or cells: E. coli MG1655 with aspC/proA on pProNde; E. coli BL21 (DE3) with aspC/proA on pET30
# Method: The strains used for the experiment included E. coli MG1655 : : aspC/proA/pProNde and E. coli BL21 (DE3) : : aspC/proA/pET30. For inoculum, the E. coli strains were grown overnight at 37° C. and 250 rpm in Luria-Bertani (“LB”) medium with 50 μg/mL kanamycin.
# For the experimental treatments, Trp-1+ glucose medium, a minimal medium that has been used for increased production of tryptophan in E. coli cells (Zeman, et al. Folia Microbiol. 35:200-204, (1990)), was prepared as follows. To 800 mL nanopure water the following reagents were added: 2 g (NH4)2SO4 and 13.6 g KH2PO4. The pH was adjusted to 7.0, the volume was increased to 948 mL, and the medium was autoclaved. Following sterilization, 0.2 g MgSO4.7H2O, 0.01 g CaCl2.2H2O, and 0.5 mg FeSO4.7H2O were added to the medium in a 1.8 mL volume followed by addition of 0.2 mL of Neidhardt's micronutrient solution. Neidhardt, F. C., et al., “Culture medium for Enterobacteria,” J. Bacteriol. 119:736-746 (1974). Neidhardt's medium includes (per liter): 0.18 g (NH4)6(MO7)24.4H2O, 1.24 g H3BO3, 0.36 g CoCl2.6H2O, 0.12 g CuSO4 (anhydrous), 0.8 g MnCl2.4H2O, and 0.14 g ZnSO4.7H2O. A 50% glucose solution was prepared separately and sterile-filtered. Forty mL of glucose solution and 10 mL of 1 M 3-Morpholinopropanesulfonic acid (“MOPS”) buffer were added to the base medium (950 mL) for a 1 L final volume.
# Conditions for the treatments included 250 rpm agitation throughout and 37° C. up to induction, then, 30° C. following induction. At 0.5-0.6 OD600 nm, induction of the plasmid genes was initiated. At induction, 0.5 mM IPTG, 0.5% arabinose, 0.5 mM pyridoxine hydrochloride, and 0.2 mL of Balch's vitamins were added. […] Some treatments included 10 μM carbonyl cyanide 3-chlorophenylhydrazone (“CCCP”) addition to initial medium. One treatment included an additional 10 μM CCCP dose at 3.5 hours following induction. CCCP induces the EmrB efflux system. Samples for monatin analysis and dry cell weight determination were taken at 10, 15.5, 25.6 and 31 hours. Monatin analysis was preformed as described in Example 13.
# Analyses of mixtures for monatin and tryptophan derived from in vitro or in vivo biochemical reactions were performed using a Waters/Micromass liquid chromatography-tandem mass spectrometry (“LC/MS/MS”) instrument including a Waters 2795 liquid chromatograph with a Waters 996 Photo-Diode Array (PDA) absorbance monitor placed in series between the chromatograph and a Micromass Quattro Ultima triple quadrupole mass spectrometer. LC separations were made using an Xterra MS C8 reversed-phase chromatography column, 2.1 mm×250 mm at 40° C. The LC mobile phase consisted of A) water containing 0.05% (v/v) trifluoroacetic acid and B) methanol containing 0.05% (v/v) trifluoroacetic acid.
# The gradient elution was linear from 5% B to 35% B, 0-4 min, linear from 35% B to 60% B, 4-6.5 min, linear from 60% B to 90% B, 6.5-7 min, isocratic at 90% B 7-11 min, linear from 90% B to 95% B, 11-12 min, linear from 95% B to 5% B, 12-13 min, with a 5 min re-equilibration period between runs. The flow rate was 0.25 mL/min, and PDA absorbance was monitored from 200 nm to 400 nm. All parameters of the ESI-MS were optimized and selected based on generation of protonated molecular ions ([M+H]^+) of the analytes of interest, and production of characteristic fragment ions. The following instrumental parameters were used for LC/MS/MS Multiple Reaction Monitoring (“MRM”) analysis of monatin and tryptophan: Capillary: 3.5 kV; Cone: 40 V; Hex 1: 20 V; Aperture: 0 V; Hex 2: 0 V; Source temperature: 100° C.; Desolvation temperature: 350° C.; Desolvation gas: 500 L/h; Cone gas: 50 L/h; Low mass resolution (Q1): 12.0; High mass resolution (Q1): 12.0; Ion energy: 0.2; Entrance: −5 V; Collision Energy: 8; Exit: 1V; Low mass resolution (Q2): 15; High mass resolution (Q2): 15; Ion energy (Q2): 3.5; Multiplier: 650. […]
# [1] = tested on: E. coli BL21DE3::aspCproApET30; test: Growth (optical density) with CCCP, wild type control; assay type: cell-based, Escherichia coli; details: 20 μM CCCP
# Method: (§1) Single chloramphenicol-resistant colonies were purified by restreaking on appropriate selective media and single colonies were tested by PCR as previously described for the BW25113 knockout strains, to verify the presence of the emrB and acrAB knockouts. The effects of the emrB and acrAB knockouts on the EmrAB and AcrAB transporter systems respectively were determined by assessing the phenotype of the transport mutants using appropriate antibiotics and comparison to wild type control microorganisms as shown in Table 3.1 and Table 3.2 below.
# [2] = tested on: E. coli BL21DE3ΔemrB::aspCproApET30; test: Growth (optical density) with CCCP, emrB knockout mutant; assay type: cell-based, Escherichia coli; details: 20 μM CCCP
# Method: as §1
# [3] = tested on: E. coli BL21 DE3 aspC/proA on pET30; test: Monatin excretion with glucose or malate as carbon source; assay type: cell-based, Escherichia coli
# Method: For inoculum, E. coli BL21 DE3 aspC/proA on pET30 was grown overnight in LB medium with 50 μg/mL kanamycin at 37° C. and 250 rpm. For the experimental treatments, Trp-1 medium, as described in Example 6 (Zeman, et al. Folia Microbiol. 35:200-204, (1990)), and 50 μg/mL kanamycin was used. Malate and glucose were 4 g/L initially for their respective treatments. For treatment flasks, 2.2 v/v % of inoculum was added to 50 mL medium volume in 250 mL baffled shake flasks. For glucose treatments, induction of the monatin operon was initiated at 0.8 OD600 nm. For malate treatments, induction was at 0.25 OD. At induction, 0.5 mM IPTG, 0.5 mM pyridoxine hydrochloride, and 0.2 mL of Balch's vitamins (Balch, W. E., et al., “Methanogens: reevaluation of a unique biological group,” Microbiol. Rev. 43:260-296 (1979)) were added. Temperature was reduced to 30° C. at induction.
# [4] = tested on: C. glutamicum ATCC 13032 transformed with aspCProApEKEX-2
# Method: C. glutamicum ATCC 13032 strains transformed with aspCProApEKEX-2 were grown overnight in LB medium supplemented with 25 μg/mL kanamycin incubated at 37° C. and shaking at 250 rpm. For the experimental treatment flasks, 100 mL of Krämer's A medium was used in each shake flask. Hoischen, C. and Krämer, R., “Evidence for an efflux carrier system involved in the secretion of glutamate by Corynebacterium glutamicum,” Arch. Microbiol 151:342-347, (1989). Krämer's A medium contained (per liter): 5 g (NH4)2SO4, 5 g urea, 2 g KH2PO4, 1.53 g K2HPO4, 0.249 g MgSO4.7H2O, 50 g glucose, 0.01 g FeSO4.7H2O, 0.01 g MnSO4.H2O, 0.01 g CaCl2.2H2O, 0.03 mg ZnSO4.7H2O, 0.1 mg H3BO3, 0.07 mg […], 0.01 mg NiCl2.2H2O, 0.03 mg CuCl2.2H2O, 0.1 mg as Mo^+6 from (NH4)6Mo7O24-4H2O and 1 μg biotin. The pH was adjusted to 7.0.
# For treatments, 4.2 v/v % of inoculum was added to 100 mL medium volume in 500 mL baffled shake flasks. Conditions for the treatments included 37° C. throughout the experiment and 250 rpm agitation. Sodium salicylate (0, 1 mM or 2 mM) was added 1 hour following inoculation. At 0.45-0.6 OD600 nm induction of the monatin operon genes was initiated. IPTG at 0.5 mM was used for induction, and additions at the time of induction included 0.5 mM pyridoxine hydrochloride and 0.04 mM pyridoxal-5′-phosphate (“PLP”). Additions of 1 g L-tryptophan, 5 g/L sodium pyruvate and 10 μg/mL ampicillin were made 3 hours following induction. Samples for monatin and dry cell weight determination were taken at 23.5 and 48 hours.
# Monatin analysis was conducted as described in Example 13.
# E. coli BL21DE3 AP pET32 = test: Monatin excretion with Tween 20, E. coli BL21DE3 with or without Arabidopsis auxin transporter gene; assay type: cell-based, Escherichia coli; details: 0.2% Tween 20
# Method: For inoculum preparation, the E. coli strains were grown overnight at 37° C. and 250 rpm in Luria-Bertani (“LB”) medium with 100 μg/mL ampicillin and 50 μg/mL kanamycin. For the experimental treatments, Trp-1+glucose medium, a minimal medium that has been used for increased production of tryptophan in E. coli cells (Zeman, et al. Folia Microbiol. 35:200-204, (1990)), was prepared as follows. To 800 mL nanopure water the following reagents were added: 2 g (NH4)2SO4 and 13.6 g KH2PO4. The pH was adjusted to 7.0, the volume was increased to 948 mL, and the medium was autoclaved. Following sterilization, 0.2 g MgSO4.7H2O, 0.01 g CaCl2.2H2O, and 0.5 mg FeSO4.7H2O were added to the medium in a 1.8 mL volume followed by addition of 0.2 mL of Neidhardt's micronutrient solution. Neidhardt F. C., et al., “Culture medium for Enterobacteria,” J. Bacteriol. 119:736-746, (1974). Neidhardt's medium includes (per liter): 0.18 g (NH4)6(MO7)24.4H2O, 1.24 g H3BO3, 0.36 g CoCl2.6H2O, 0.12 g CuSO4 (anhydrous), 0.8 g MnCl2.4H2O, and 0.14 g ZnSO4.7H2O. A 50% glucose solution was prepared separately and sterile-filtered. Forty mL of glucose solution and 10 mL of 1 M 3-Morpholinopropanesulfonic acid (“MOPS”) buffer were added to the base medium (950 mL) for a 1 L final volume.
# Conditions for the treatments included 250 rpm agitation throughout and 37° C. up to induction, then, 30° C. following induction. At 0.54-0.62 OD600 nm, induction of the plasmid genes was initiated. At induction, 1.0 mM IPTG, 0.5% L-arabinose, 0.5 mM pyridoxine hydrochloride, and 0.2 mLs of Balch's vitamins were added. Additions of 10 g/L L-tryptophan, 10 g/L sodium pyruvate, 0.04 mM pyridoxal-5′-phosphate (“PLP”) and 0 or 0.2% Tween® 20 (polyoxyethylene 20-sorbitan monolaurate) were made 3 hours following induction.
# [5] = E. coli BL21 (DE3)::aspCproA pET30, 10 μM CCCP
# [6] = E. coli BL21 (DE3)::aspCproA pET30, 10 μM CCCP + 10 μM CCCP
# [7] = E. coli MG1655::aspCproA pProNde, 10 μM CCCP
# [8] = Arabidopsis auxin transporter gene on pProNde del, n = 3
# [9] = no auxin transporter gene on pProNde del, n = 3
# T1 sequence (P02930 23-493): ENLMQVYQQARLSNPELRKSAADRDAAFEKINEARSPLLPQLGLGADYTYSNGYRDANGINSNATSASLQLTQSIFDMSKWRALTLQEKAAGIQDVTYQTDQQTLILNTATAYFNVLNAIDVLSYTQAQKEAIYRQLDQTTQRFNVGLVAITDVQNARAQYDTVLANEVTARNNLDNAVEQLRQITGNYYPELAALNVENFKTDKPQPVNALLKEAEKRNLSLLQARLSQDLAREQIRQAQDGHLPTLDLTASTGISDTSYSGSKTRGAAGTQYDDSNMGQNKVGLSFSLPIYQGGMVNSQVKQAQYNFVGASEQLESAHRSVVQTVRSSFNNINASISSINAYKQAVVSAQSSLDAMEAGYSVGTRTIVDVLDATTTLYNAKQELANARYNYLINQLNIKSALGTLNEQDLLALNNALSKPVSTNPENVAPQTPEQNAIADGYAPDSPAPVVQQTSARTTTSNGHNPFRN
# T1 sequence (P0AEJ0 whole entry): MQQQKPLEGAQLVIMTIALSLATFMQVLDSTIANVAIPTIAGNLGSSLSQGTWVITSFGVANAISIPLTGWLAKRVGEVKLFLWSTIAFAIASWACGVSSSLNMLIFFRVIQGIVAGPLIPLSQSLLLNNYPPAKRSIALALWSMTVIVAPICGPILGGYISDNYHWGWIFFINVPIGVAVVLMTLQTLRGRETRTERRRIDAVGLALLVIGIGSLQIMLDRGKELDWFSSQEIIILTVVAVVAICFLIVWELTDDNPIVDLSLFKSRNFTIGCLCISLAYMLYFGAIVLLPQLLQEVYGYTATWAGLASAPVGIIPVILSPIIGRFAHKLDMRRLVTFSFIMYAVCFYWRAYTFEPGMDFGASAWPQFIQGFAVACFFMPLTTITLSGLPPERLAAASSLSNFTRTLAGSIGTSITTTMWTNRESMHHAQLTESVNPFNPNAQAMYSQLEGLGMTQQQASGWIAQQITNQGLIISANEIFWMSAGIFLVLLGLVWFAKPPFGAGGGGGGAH
# T1 sequence (P27303 whole entry, further chain): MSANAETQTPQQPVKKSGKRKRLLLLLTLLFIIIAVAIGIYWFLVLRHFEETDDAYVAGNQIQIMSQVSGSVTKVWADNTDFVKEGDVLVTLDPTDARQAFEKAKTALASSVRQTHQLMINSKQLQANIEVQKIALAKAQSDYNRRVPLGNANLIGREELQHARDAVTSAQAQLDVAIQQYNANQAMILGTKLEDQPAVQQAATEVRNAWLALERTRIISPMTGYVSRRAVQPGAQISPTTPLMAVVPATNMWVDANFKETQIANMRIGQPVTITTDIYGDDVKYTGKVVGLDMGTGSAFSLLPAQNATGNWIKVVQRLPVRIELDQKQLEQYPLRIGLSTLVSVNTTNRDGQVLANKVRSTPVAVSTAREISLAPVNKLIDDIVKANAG
compound,measurement,setting,value
"N#CC(C#N)=NNc1cccc(Cl)c1 [CCCP, carbonyl cyanide 3-chlorophenylhydrazone]",increase in monatin/dcw,"EmrAB efflux pump; E. coli BL21 (DE3)::aspC proA pET30, one addition (10 μM) of CCCP",greater than 1.8 fold
same,increase in monatin/dcw,"EmrAB efflux pump; E. coli BL21 (DE3)::aspC proA pET30, two additions (20 μM) of CCCP",> 3.5 fold
same,Monatin/dry cell weight at run hour 10,EmrAB efflux pump; [5],6.4 mg/g
same,Monatin/dry cell weight at run hour 15.5,EmrAB efflux pump; [5],22.5 mg/g
same,Monatin/dry cell weight at run hour 25.6,EmrAB efflux pump; [5],34.3 mg/g
same,Monatin/dry cell weight at run hour 31,EmrAB efflux pump; [5],33.0 mg/g
same,Monatin/dry cell weight at run hour 10,EmrAB efflux pump; [6],16.2 mg/g
same,Monatin/dry cell weight at run hour 15.5,EmrAB efflux pump; [6],38.0 mg/g
same,Monatin/dry cell weight at run hour 25.6,EmrAB efflux pump; [6],52.1 mg/g
same,Monatin/dry cell weight at run hour 31,EmrAB efflux pump; [6],64.2 mg/g
same,Monatin/dry cell weight at run hour 15.5,EmrAB efflux pump; [7],0.7 mg/g
same,Monatin/dry cell weight at run hour 25.6,EmrAB efflux pump; [7],6.7 mg/g
same,Monatin/dry cell weight at run hour 31,EmrAB efflux pump; [7],12.4 mg/g
same,increase in monatin/dcw,EmrAB efflux pump; E. coli MG1655::aspCproA pProNde,2 fold
same,"Optical Density @ 600 nM, 6 hours",[1],0.034
same,"Optical Density @ 600 nM, 24 hours",[1],1.113
same,decrease in growth,[2]; deletion strain,eighty fold/ninety nine percent decrease in growth
same,"Optical Density @ 600 nM, 6 hours",[2]; emrB knockout mutant,0.024
same,"Optical Density @ 600 nM, 24 hours",[2]; emrB knockout mutant,0.014
O=C(O)CC(O)C(=O)O (stereo not shown) [malate],"Monatin/dcw, 24 hour average","[3]; carbon source 4 g/L initially, 24 hours post induction",7.72 mg/g
same,"Monatin/dcw, 24 hours","[3]; carbon source 4 g/L initially, 24 hours post induction, single flasks",7.19 mg/g and 8.25 mg/g
same,higher monatin transported per unit biomass,[3]; malate as primary carbon source vs glucose,23%
"O=C([O-])c1ccccc1O.[Na+] [sodium salicylate, Sodium salicylate]",increase in monatin transported,"[4]; 1 mM or 2 mM sodium salicylate, 23.5 hours",seventy percent increase
same,increase in monatin efflux,"[4]; 1 mM or 2 mM sodium salicylate, 48 hours",seven percent increase
same,"Monatin/dcw, 23.5 hours",[4]; 1 mM sodium salicylate,7.41 mg/g
same,"Monatin/dcw, 48 hours",[4]; 1 mM sodium salicylate,9.94 mg/g
same,"Monatin/dcw, 23.5 hours",[4]; 2 mM sodium salicylate,7.54 mg/g
same,"Monatin/dcw, 48 hours",[4]; 2 mM sodium salicylate,9.82 mg/g
polyoxyethylene 20-sorbitan monolaurate [Tween ® 20],"Monatin/dry cell wt., 30 hours","E. coli BL21DE3 AP pET32; Arabidopsis auxin transporter gene on pProNde del, n = 2",26.7* mg/g
same,"Monatin/dry cell wt., 24 hours",E. coli BL21DE3 AP pET32; [8],29.4 mg/g
same,"Monatin/dry cell wt., 48 hours",E. coli BL21DE3 AP pET32; [8],19.7 mg/g
same,"Monatin/dry cell wt., 24 hours",E. coli BL21DE3 AP pET32; [9],2.2 mg/g
same,"Monatin/dry cell wt., 30 hours",E. coli BL21DE3 AP pET32; [9],2.5 mg/g
same,"Monatin/dry cell wt., 48 hours",E. coli BL21DE3 AP pET32; [9],2.2 mg/g
